#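 Cultured in 96-well plates, cells were exposed to test compound for 48 hours across five concentrations. Abbreviation: GI50, concentration required for 50% inhibition of growth.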 The source made the active and inactive calls. Rule as the data show it: active = GI50 up to about 1.1 µM and inactive = higher.
# How the values were obtained:
# Assay in all cases: NCI-60 cell line screen, 48 h
# OVCAR-5 = test system: OVCAR-5
# A549 = test system: A549
# PC-3 = test system: PC-3
# HT-29 = test system: HT-29
# MDA-MB-231 = test system: MDA-MB-231
# OVCAR-4 = test system: OVCAR-4
# ACHN = test system: ACHN
# SK-OV-3 = test system: SK-OV-3
# NCI-H23 = test system: NCI-H23
# HOP-92 = test system: HOP-92
# MDA-N = test system: MDA-N
# HL-60 = test system: HL-60
# MOLT-4 = test system: MOLT-4
# NCI/ADR-RES = test system: NCI/ADR-RES
# SK-MEL-28 = test system: SK-MEL-28
# LOX IMVI = test system: LOX IMVI
# SR = test system: SR
# K562 = test system: K562
# SNB-19 = test system: SNB-19
# OVCAR-8 = test system: OVCAR-8
SMILES,GI50 (OVCAR-5),GI50 (A549),GI50 (PC-3),GI50 (HT-29),GI50 (MDA-MB-231),GI50 (OVCAR-4),GI50 (ACHN),GI50 (SK-OV-3),GI50 (NCI-H23),GI50 (HOP-92),GI50 (MDA-N),GI50 (HL-60),GI50 (MOLT-4),GI50 (NCI/ADR-RES),GI50 (SK-MEL-28),GI50 (LOX IMVI),GI50 (SR),GI50 (K562),GI50 (SNB-19),GI50 (OVCAR-8)
COC(=O)CCc1ccc2c(c1)CC1(C2)Cc2ccc3c(c2C1)CCC3 (stereo not given),> 10 µM (inactive),53.5 µM (inactive),> 100 µM (inactive),70.3 µM (inactive),89.1 µM (inactive),49.1 µM (inactive),> 100 µM (inactive),30.4 µM (inactive),50.6 µM (inactive),54 µM (inactive),87.9 µM (inactive),30.3 µM (inactive),38.5 µM (inactive),> 100 µM (inactive),> 100 µM (inactive),> 100 µM (inactive),> 100 µM (inactive),38.7 µM (inactive),> 100 µM (inactive),46.2 µM (inactive)
Cc1cccc(/N=N/C(=N\NC(=O)c2cc(Cl)ccc2O)c2ccc(N(CCC#N)CCC#N)cc2C)c1,64.9 µM (inactive),26.5 µM (inactive),25.8 µM (inactive),28.3 µM (inactive),21.2 µM (inactive),22.1 µM (inactive),34.7 µM (inactive),35.7 µM (inactive),32.7 µM (inactive),23.8 µM (inactive),55.6 µM (inactive),14.3 µM (inactive),15.9 µM (inactive),45.1 µM (inactive),42.9 µM (inactive),31 µM (inactive),22.8 µM (inactive),33.3 µM (inactive),35.1 µM (inactive),31.3 µM (inactive)
Cc1nn(C(=O)c2ccc(Cl)cc2)c2c1C(c1ccco1)SC(=N)N2 (stereo not given),> 10 µM (inactive),> 10 µM (inactive),> 10 µM (inactive),> 10 µM (inactive),> 10 µM (inactive),> 10 µM (inactive),> 10 µM (inactive),> 10 µM (inactive),> 10 µM (inactive),> 10 µM (inactive),> 10 µM (inactive),> 10 µM (inactive),> 10 µM (inactive),> 10 µM (inactive),> 10 µM (inactive),> 10 µM (inactive),> 10 µM (inactive),> 10 µM (inactive),> 10 µM (inactive),> 10 µM (inactive)
C=C1C(=O)O[C@@H]2C[C@]3(C)CC[C@]4(C)[C@H](CC[C@@H]5[C@@]6(C)CCC(=O)C(C)(C)[C@@H]6CC[C@]54C)[C@H]3[C@H]12 [OCHRACEOLIDE A],18.4 µM (inactive),22.2 µM (inactive),14.7 µM (inactive),20.6 µM (inactive),24.7 µM (inactive),18.3 µM (inactive),11.9 µM (inactive),24 µM (inactive),23.7 µM (inactive),9.31 µM (inactive),15.3 µM (inactive),1.63 µM (inactive),2.31 µM (inactive),22.2 µM (inactive),18.9 µM (inactive),15.2 µM (inactive),14.9 µM (inactive),4.45 µM (inactive),26.9 µM (inactive),13.7 µM (inactive)
O=C1C(=O)N(c2cccc(C(F)(F)F)c2)C(=O)C(=O)C1c1nc2ccccc2s1,> 100 µM (inactive),> 100 µM (inactive),> 100 µM (inactive),78.3 µM (inactive),73.6 µM (inactive),> 92.5 µM (inactive),> 65.2 µM (inactive),> 100 µM (inactive),> 59.7 µM (inactive),> 100 µM (inactive),> 100 µM (inactive),31.8 µM (inactive),43.3 µM (inactive),45.2 µM (inactive),> 100 µM (inactive),68.9 µM (inactive),36.3 µM (inactive),51.2 µM (inactive),> 100 µM (inactive),20.2 µM (inactive)
C=CCc1c(Cl)nc(Cl)nc1Cl,0.678 µM (active),2.04 µM (inactive),0.733 µM (active),0.266 µM (active),0.561 µM (active),0.243 µM (active),0.346 µM (active),1.32 µM (inactive),0.422 µM (active),0.255 µM (active),0.0308 µM (active),> 100 µM (inactive),0.0102 µM (active),0.853 µM (active),0.431 µM (active),< 0.0115 µM (active),< 0.01 µM (active),< 0.0151 µM (active),0.859 µM (active),0.274 µM (active)
COc1ccc2nc(N/N=C/C(C)=N/Nc3cc(C)c4cc(OC)ccc4n3)cc(C)c2c1,27.4 µM (inactive),19.7 µM (inactive),22.3 µM (inactive),12.7 µM (inactive),19 µM (inactive),18.5 µM (inactive),26.7 µM (inactive),> 83.8 µM (inactive),23.1 µM (inactive),36.2 µM (inactive),23.7 µM (inactive),18.5 µM (inactive),21.2 µM (inactive),22 µM (inactive),35.2 µM (inactive),22.6 µM (inactive),5.11 µM (inactive),3.9 µM (inactive),23.1 µM (inactive),19.1 µM (inactive)
COC(=O)c1cc2c(cc1CC1Cc3cc4c(cc3C1)CCC4)CCC2,43.5 µM (inactive),60.4 µM (inactive),74.3 µM (inactive),36.3 µM (inactive),77.3 µM (inactive),84.7 µM (inactive),43.4 µM (inactive),> 100 µM (inactive),44.4 µM (inactive),27 µM (inactive),36.1 µM (inactive),15.3 µM (inactive),17.2 µM (inactive),> 100 µM (inactive),19.5 µM (inactive),24.3 µM (inactive),19.1 µM (inactive),25.8 µM (inactive),93.3 µM (inactive),> 100 µM (inactive)
c1ccc2c(c1)nc1n2CCCn2ccnc2-1,> 100 µM (inactive),> 100 µM (inactive),> 100 µM (inactive),> 100 µM (inactive),> 100 µM (inactive),> 100 µM (inactive),73.6 µM (inactive),0.0137 µM (active),> 100 µM (inactive),> 100 µM (inactive),> 100 µM (inactive),0.225 µM (active),> 100 µM (inactive),27 µM (inactive),> 100 µM (inactive),> 100 µM (inactive),> 100 µM (inactive),> 100 µM (inactive),> 100 µM (inactive),67.5 µM (inactive)
O=C(Nc1nc(C23CC4CC(CC(C4)C2)C3)cs1)c1cc2cc(Br)cc(Br)c2oc1=O,> 100 µM (inactive),53 µM (inactive),71.1 µM (inactive),> 100 µM (inactive),52.6 µM (inactive),58.1 µM (inactive),> 100 µM (inactive),> 100 µM (inactive),> 100 µM (inactive),46 µM (inactive),87.5 µM (inactive),65.5 µM (inactive),50.1 µM (inactive),> 100 µM (inactive),> 100 µM (inactive),> 100 µM (inactive),32.3 µM (inactive),42.5 µM (inactive),41.8 µM (inactive),34.4 µM (inactive)
